# Legend:
# [1] = target: T1, B1R receptor of rats (rB1R) (Rattus norvegicus, UniProt P97583); test: FLIPR Ca2+ assay (Fluo-4) on CHO K1 cells stably transfected with the B1R gene of rats; format: cell-based; conditions: CHO-K1; test substance 10 μM; agonist Des-Arg9-bradykinin 100 nM; % inhibition compared to the maximum achievable inhibition
# T1 construct: host or cells: CHO K1 cells
# T1 sequence (P97583 1-337): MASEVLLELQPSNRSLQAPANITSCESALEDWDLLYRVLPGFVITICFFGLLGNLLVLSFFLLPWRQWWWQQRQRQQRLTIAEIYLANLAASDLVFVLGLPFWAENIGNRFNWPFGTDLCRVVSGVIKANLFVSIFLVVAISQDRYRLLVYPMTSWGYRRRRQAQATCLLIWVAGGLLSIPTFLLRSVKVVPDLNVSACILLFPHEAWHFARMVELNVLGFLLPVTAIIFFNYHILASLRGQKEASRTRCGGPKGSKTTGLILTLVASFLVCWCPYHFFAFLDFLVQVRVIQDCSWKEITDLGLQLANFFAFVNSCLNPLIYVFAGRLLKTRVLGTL
# How it was run: (§1)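 CHO K1 cells stably expressing human or rat B1R, Fluo-4 loaded, read by FLIPR (Ex 488/Em 540, peak fluorescence). Compound at 10 μM gives % activation vs agonist. After 10 min, agonist added (human: Lys-Des-Arg9-bradykinin 0.5 nM; rat: Des-Arg9-bradykinin 100 nM); % inhibition relative to maximal achievable inhibition.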
# [2] = target: T2, human B1R receptor (hB1R) (Homo sapiens, UniProt P46663); test: FLIPR Ca2+ assay (Fluo-4) on CHO K1 cells stably transfected with the human B1R gene; format: cell-based; conditions: CHO-K1; test substance 10 μM; agonist Lys-Des-Arg9-bradykinin 0.5 nM; % inhibition compared to the maximum achievable inhibition
# T2 construct: host or cells: CHO K1 cells
# T2 sequence (P46663 1-353): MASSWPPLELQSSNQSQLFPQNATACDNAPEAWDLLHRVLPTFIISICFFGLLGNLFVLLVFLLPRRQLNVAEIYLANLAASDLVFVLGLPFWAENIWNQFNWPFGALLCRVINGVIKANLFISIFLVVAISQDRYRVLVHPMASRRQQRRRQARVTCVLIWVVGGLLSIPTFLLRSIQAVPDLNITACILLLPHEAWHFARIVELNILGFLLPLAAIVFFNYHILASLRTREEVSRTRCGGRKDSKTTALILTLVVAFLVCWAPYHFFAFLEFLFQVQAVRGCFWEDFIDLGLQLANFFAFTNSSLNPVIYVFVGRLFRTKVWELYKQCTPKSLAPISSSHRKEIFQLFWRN
# How it was run: as §1
Structure (SMILES),inhibition at 10 µM [1],inhibition at 10 µM [2]
"Cc1cc(C)c(S(=O)(=O)N2CCCCC2COCC(=O)N2CCn3c(CN4CCCCC4)ccc3C2c2ccccc2)c(C)c1 (centres unmarked) [(48), 2-((1-(mesitylsulfonyl)piperidin-2-yl)methoxy)-1-(1-phenyl-6-(piperidin-1-yl-methyl)-3,4-dihydropyrrolo[1,2-a]pyrazin-2(1H)-yl)ethanone]",103%,103%
"Cc1cc(C)c(S(=O)(=O)N2CCCCC2COCC(=O)N2CCn3c(CN4CCOCC4)ccc3C2c2ccccc2)c(C)c1 (centres unmarked) [(49), 2-((1-(mesitylsulfonyl)piperidin-2-yl)methoxy)-1-(6-(morpholinomethyl)-1-phenyl-3,4-dihydropyrrolo[1,2-a]pyrazin-2(1H)-yl)ethanone]",103%,103%
"Cc1cc(C)c(S(=O)(=O)N2CCCCC2COCC(=O)N2CCn3c(CN(C)C)ccc3C2Cc2ccccc2)c(C)c1 (centres unmarked) [(50), 1-(1-benzyl-6-((dimethylamino)methyl)-3,4-dihydropyrrolo[1,2-a]pyrazin-2(1H)-yl)-2-((1-(mesitylsulfonyl)piperidin-2-yl)methoxy)ethanone]",102%,100%
"Cc1cc(C)c(S(=O)(=O)N2CCCCC2COCC(=O)N2CCn3c(CN(C)C)ccc3C2CCc2ccccc2)c(C)c1 (centres unmarked) [(51), 1-(6-((dimethylamino)methyl)-1-phenethyl-3,4-dihydropyrrolo[1,2-a]pyrazin-2(1H)-yl)-2-((1-(mesitylsulfonyl)piperidin-2-yl)methoxy)ethanone]",101%,101%
"CCCCC1c2ccc(CN(C)C)n2CCN1C(=O)COCC1CCCCN1S(=O)(=O)c1c(C)cc(C)cc1C (centres unmarked) [(52), 1-(1-butyl-6-((dimethylamino)methyl)-3,4-dihydropyrrolo[1,2-a]pyrazin-2(1H)-yl)-2-((1-(mesitylsulfonyl)piperidin-2-yl)methoxy)ethanone]",100%,103%
"Cc1cc(C)c(S(=O)(=O)N2CCCCC2COCC(=O)N2CCn3c(CN(C)C)ccc3C2c2cccs2)c(C)c1 (centres unmarked) [(53), 1-(6-((dimethylamino)methyl)-1-(thiophen-2-yl)-3,4-dihydropyrrolo[1,2-a]pyrazin-2(1H)-yl)-2-((1-(mesitylsulfonyl)piperidin-2-yl)methoxy)ethanone]",102%,92%
"CCC1c2ccc(CN(C)C)n2CCN1C(=O)COCC1CCCCN1S(=O)(=O)c1c(C)cc(C)cc1C (centres unmarked) [(54), 1-(6-((dimethylamino)methyl)-1-ethyl-3,4-dihydropyrrolo[1,2-a]pyrazin-2(1H)-yl)-2-((1-(mesitylsulfonyl)piperidin-2-yl)methoxy)ethanone]",100%,102%
"CCC1c2cccn2CCN1C(=O)COCC1CCCCN1S(=O)(=O)c1c(C)cc(C)cc1C (centres unmarked) [(55), 1-(1-ethyl-3,4-dihydropyrrolo[1,2-a]pyrazin-2(1H)-yl)-2-((1-(mesitylsulfonyl)piperidin-2-yl)methoxy)ethanone]",103%,98%
"CCCC1c2cccn2CCN1C(=O)COCC1CCCCN1S(=O)(=O)c1c(C)cc(C)cc1C (centres unmarked) [(56), 2-((1-(mesitylsulfonyl)piperidin-2-yl)methoxy)-1-(1-propyl-3,4-dihydropyrrolo[1,2-a]pyrazin-2(1H)-yl)ethanone]",102%,95%
"Cc1cc(C)c(S(=O)(=O)N2CCCCC2COCC(=O)N2CCn3cccc3C2C(C)C)c(C)c1 (centres unmarked) [(57), 1-(1-isopropyl-3,4-dihydropyrrolo[1,2-a]pyrazin-2(1H)-yl)-2-((1-(mesitylsulfonyl)piperidin-2-yl)methoxy)ethanone]",103%,102%
"CCC1c2ccc(C)n2CCN1C(=O)COCC1CCCCN1S(=O)(=O)c1c(C)cc(C)cc1C (centres unmarked) [(58), 1-(1-ethyl-6-methyl-3,4-dihydropyrrolo[1,2-a]pyrazin-2(1H)-yl)-2-((1-(mesitylsulfonyl)piperidin-2-yl)methoxy)ethanone]",103%,97%
"Cc1cc(C)c(S(=O)(=O)N2CCCCC2COCC(=O)N2CCn3c(C)ccc3C2C(C)C)c(C)c1 (centres unmarked) [(59), 1-(1-isopropyl-6-methyl-3,4-dihydropyrrolo[1,2-a]pyrazin-2(1H)-yl)-2-((1-(mesitylsulfonyl)piperidin-2-yl)methoxy)ethanone]",103%,85%
"COc1cc(C)c(S(=O)(=O)N2CCCCC2COCC(=O)N2CCn3cccc3C2CCc2ccccc2)c(C)c1 (centres unmarked) [(60), 2-((1-(4-methoxy-2,6-dimethylphenylsulfonyl)piperidin-2-yl)methoxy)-1-(1-phenethyl-3,4-dihydropyrrolo[1,2-a]pyrazin-2(1H)-yl)ethanone]",102%,87%
"COc1cc(C)c(S(=O)(=O)N2CCCCC2COCC(=O)N2CCn3c(CN(C)C)ccc3C2c2ccccc2)c(C)c1 (centres unmarked) [(61), 1-(6-((dimethylamino)methyl)-1-phenyl-3,4-dihydropyrrolo[1,2-a]pyrazin-2(1H)-yl)-2-((1-(4-methoxy-2,6-dimethylphenylsulfonyl)piperidin-2-yl)methoxy)ethanone]",101%,102%
"COc1cc(C)c(S(=O)(=O)N2CCCCC2COCC(=O)N2CCn3c(CN4CCCC4)ccc3C2c2ccccc2)c(C)c1 (centres unmarked) [(62), 2-((1-(4-methoxy-2,6-dimethylphenylsulfonyl)piperidin-2-yl)methoxy)-1-(1-phenyl-6-(pyrrolidin-1-ylmethyl)-3,4-dihydropyrrolo[1,2-a]pyrazin-2(1H)-yl)ethanone]",101%,102%
"COc1cc(C)c(S(=O)(=O)N2CCCCC2COCC(=O)N2CCn3c(CN4CCCCC4)ccc3C2c2ccccc2)c(C)c1 (centres unmarked) [(63), 2-((1-(4-methoxy-2,6-dimethylphenylsulfonyl)piperidin-2-yl)methoxy)-1-(1-phenyl-6-(piperidin-1-ylmethyl)-3,4-dihydropyrrolo[1,2-a]pyrazin-2(1H)-yl)ethanone]",103%,104%
"COc1cc(C)c(S(=O)(=O)N2CCCCC2COCC(=O)N2CCn3c(CN4CCOCC4)ccc3C2c2ccccc2)c(C)c1 (centres unmarked) [(64), 2-((1-(4-methoxy-2,6-dimethylphenylsulfonyl)piperidin-2-yl)methoxy)-1-(6-(morpholinomethyl)-1-phenyl-3,4-dihydropyrrolo[1,2-a]pyrazin-2(1H)-yl)ethanone]",102%,103%
"COc1cc(C)c(S(=O)(=O)N2CCCCC2COCC(=O)N2CCn3c(CN(C)C)ccc3C2Cc2ccccc2)c(C)c1 (centres unmarked) [(65), 1-(1-benzyl-6-((dimethylamino)methyl)-3,4-dihydropyrrolo[1,2-a]pyrazin-2(1H)-yl)-2-((1-(4-methoxy-2,6-dimethylphenylsulfonyl)piperidin-2-yl)methoxy)ethanone]",100%,102%
"COc1cc(C)c(S(=O)(=O)N2CCCCC2COCC(=O)N2CCn3c(CN(C)C)ccc3C2CCc2ccccc2)c(C)c1 (centres unmarked) [(66), 1-(6-((dimethylamino)methyl)-1-phenethyl-3,4-dihydropyrrolo[1,2-a]pyrazin-2(1H)-yl)-2-((1-(4-methoxy-2,6-dimethylphenylsulfonyl)piperidin-2-yl)methoxy)ethanone]",101%,102%

# Reference: patent US8178535B2, “Substituted sulfonamide compounds having bradykinin 1 receptor activity and use thereof as medicaments” (Gruenenthal GmbH, priority 2008, dated 2012)
